As a reminder, the bioavailability is dose-corrected exposure relative to a reference, in per cent.

Six molecules from patent US10028960B2, “Pyrimidine compounds as JAK kinase inhibitors” (THERAVANCE BIOPHARMA R&D IP, LLC, priority 2016, dated 2018) can be followed below.

Each structure is given as a SMILES string. Where two headings read alike, the source gives them in different places.

Data set [1] has as its target JAK1 (Homo sapiens (Human), UniProt P23458). As to the kind of experiment: LanthaScreen JAK biochemical assay, JAK1. Particulars: for Ki: read-out: JAK 1 (pKi) (converted). How it is done:
(§1) A panel of four LanthaScreen JAK biochemical assays (JAK1, 2, 3 and Tyk2) were carried in a common kinase reaction buffer (50 mM HEPES, pH 7.5, 0.01% Brij-35, 10 mM MgCl2, and 1 mM EGTA). Recombinant GST-tagged JAK enzymes and a GFP-tagged STAT1 peptide substrate were obtained from Life Technologies.

Data set [2] addresses JAK3 (Homo sapiens (Human), UniProt P52333). As to the kind of experiment: LanthaScreen JAK biochemical assay, JAK3. Here is the method:
as §1
(In TR-FRET formats the signal depends on donor and acceptor labels being close together.)

In data set [3] the target is Tyk2 (Homo sapiens (Human), UniProt P29597). As to the kind of experiment: LanthaScreen JAK biochemical assay, Tyk2. Particulars: read-out: Tyk 2 (pKi) (converted). How it is done: as §1
Chain of Tyk2 (P29597 whole entry): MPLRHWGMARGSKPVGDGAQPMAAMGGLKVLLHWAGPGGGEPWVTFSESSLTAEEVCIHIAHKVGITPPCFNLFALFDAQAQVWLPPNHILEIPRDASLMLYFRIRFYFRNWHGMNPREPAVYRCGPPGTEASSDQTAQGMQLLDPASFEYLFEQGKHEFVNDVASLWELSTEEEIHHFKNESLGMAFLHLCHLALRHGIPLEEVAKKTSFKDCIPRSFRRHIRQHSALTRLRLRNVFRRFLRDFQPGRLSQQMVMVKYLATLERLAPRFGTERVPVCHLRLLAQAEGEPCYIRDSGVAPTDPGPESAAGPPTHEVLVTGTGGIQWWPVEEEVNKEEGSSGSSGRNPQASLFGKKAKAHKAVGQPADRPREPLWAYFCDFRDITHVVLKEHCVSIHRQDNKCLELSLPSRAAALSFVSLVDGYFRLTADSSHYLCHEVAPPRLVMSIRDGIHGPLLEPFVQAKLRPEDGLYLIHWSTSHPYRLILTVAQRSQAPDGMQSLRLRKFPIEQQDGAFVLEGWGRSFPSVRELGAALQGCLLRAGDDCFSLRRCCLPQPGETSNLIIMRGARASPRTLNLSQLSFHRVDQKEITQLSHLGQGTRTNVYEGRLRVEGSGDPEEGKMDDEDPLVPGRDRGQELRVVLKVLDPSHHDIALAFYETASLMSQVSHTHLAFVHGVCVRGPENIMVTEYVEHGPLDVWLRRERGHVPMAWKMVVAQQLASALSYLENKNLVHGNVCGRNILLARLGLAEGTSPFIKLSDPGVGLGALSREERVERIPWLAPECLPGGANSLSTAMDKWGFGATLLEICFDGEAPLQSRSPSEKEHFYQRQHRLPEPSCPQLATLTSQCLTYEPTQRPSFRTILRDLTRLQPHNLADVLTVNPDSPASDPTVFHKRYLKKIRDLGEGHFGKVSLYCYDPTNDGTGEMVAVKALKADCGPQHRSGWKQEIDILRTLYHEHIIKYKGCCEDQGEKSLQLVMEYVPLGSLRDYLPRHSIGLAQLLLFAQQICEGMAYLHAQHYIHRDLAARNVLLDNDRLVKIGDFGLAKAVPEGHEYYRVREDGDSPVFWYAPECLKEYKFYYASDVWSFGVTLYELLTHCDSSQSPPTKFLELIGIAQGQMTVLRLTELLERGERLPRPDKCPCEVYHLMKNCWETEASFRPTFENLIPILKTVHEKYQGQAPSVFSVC
For data set [4], the target named is JAK2 (Homo sapiens (Human), UniProt O60674). As to the kind of experiment: LanthaScreen JAK biochemical assay, JAK2. Here is the method: as §1
Chain of JAK2 (O60674 whole entry): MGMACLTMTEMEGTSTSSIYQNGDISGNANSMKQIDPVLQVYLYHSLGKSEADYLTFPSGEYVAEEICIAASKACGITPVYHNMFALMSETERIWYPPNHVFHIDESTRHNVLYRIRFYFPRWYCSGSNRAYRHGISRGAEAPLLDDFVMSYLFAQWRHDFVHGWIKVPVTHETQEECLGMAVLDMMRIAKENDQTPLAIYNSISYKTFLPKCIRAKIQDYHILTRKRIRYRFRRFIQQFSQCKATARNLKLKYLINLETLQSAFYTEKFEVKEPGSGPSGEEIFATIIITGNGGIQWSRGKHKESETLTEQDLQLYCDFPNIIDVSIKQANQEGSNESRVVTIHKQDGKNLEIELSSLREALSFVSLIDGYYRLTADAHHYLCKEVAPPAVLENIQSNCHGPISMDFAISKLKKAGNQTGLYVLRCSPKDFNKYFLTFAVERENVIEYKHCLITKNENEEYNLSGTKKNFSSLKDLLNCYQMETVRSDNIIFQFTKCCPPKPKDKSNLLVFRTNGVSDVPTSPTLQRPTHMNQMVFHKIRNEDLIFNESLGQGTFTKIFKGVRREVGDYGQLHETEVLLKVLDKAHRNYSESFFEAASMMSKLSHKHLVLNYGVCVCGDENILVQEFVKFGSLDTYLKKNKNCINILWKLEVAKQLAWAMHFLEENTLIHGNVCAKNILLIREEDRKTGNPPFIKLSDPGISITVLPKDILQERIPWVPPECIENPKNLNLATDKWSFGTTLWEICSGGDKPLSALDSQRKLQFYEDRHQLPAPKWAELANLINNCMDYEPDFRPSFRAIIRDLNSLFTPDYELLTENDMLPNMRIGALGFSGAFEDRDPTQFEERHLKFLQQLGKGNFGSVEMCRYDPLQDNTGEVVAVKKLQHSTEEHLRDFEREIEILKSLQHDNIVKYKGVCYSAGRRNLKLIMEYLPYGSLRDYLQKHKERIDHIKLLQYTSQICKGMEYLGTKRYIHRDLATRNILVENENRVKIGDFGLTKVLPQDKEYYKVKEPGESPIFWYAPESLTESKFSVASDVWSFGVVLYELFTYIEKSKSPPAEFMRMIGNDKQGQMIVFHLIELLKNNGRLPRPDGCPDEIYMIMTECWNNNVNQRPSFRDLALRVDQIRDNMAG
Data set [5] in a line: Determination of absorption in cannulated rats. The format is in vivo, Sprague Dawley rats. Particulars: rat; for bioavailability: Sprague Dawley, plasma (jugular vein), oral vs IV, read-out: oral bioavailability (F %); for absorption at the portal vein (Fa %): oral. How it is done:
Oral bioavailability (F %), fraction absorbed (Fa %) and fraction escaping hepatic clearance (Fh %) were determined in Sprague Dawley rats from the following two studies:
(1) Pharmacokinetics in rats following an IV dose of test compound: Following IV dosing, plasma samples were typically collected from 0-6 hr. Drug levels were determined using an LC-MS-MS method. The resulting drug levels were used to compute the IV pharmacokinetic parameters: AUC IV and Dose IV.
(2) Rats that have been cannulated in their portal vein (PV) and also in their jugular vein (JV) were dosed orally with test compound. Following oral dosing, plasma samples were typically collected from 0-6 hr from both the portal vein and the jugular vein. Drug levels were determined using an LC-MS-MS method. The resulting drug levels were used to compute the following pharmacokinetic parameters: AUC PO PV, AUC PO JV, and Dose PO.
Using data derived from the above studies, the oral bioavailability F %, and the quantities Fa % and Fh % were calculated from the following formulas: F %=(AUC PO JV/AUC IV)*(Dose IV/Dose PO)*100 Fa %=(AUC PO PV/AUC IV)*(Dose IV/Dose PO)*100 Fh %=AUC PO JV/AUC PO PV
AUC PO JV=Area under the curve following oral dose and plasma collected from the jugular vein
AUC PO PV=Area under the curve following oral dose and plasma collected from the portal vein
AUC IV=Area under the curve following an intravenous dose
Dose IV=Intravenous Dose in mg/kg
Dose PO=Oral Dose in mg/kg

Data set [6] deals with oxazolone-induced colitis. As to the kind of experiment: Mouse model of oxazolone-induced colitis. Format: in vivo, BALB/C mice. Particulars: mouse, PO, 1, 3, and/or 10 mg/kg BID. Here is the method: Oxazolone-induced colitis is an experimental model that has a histological resemblance to human ulcerative colitis (Heller et al. […], 2002, 17, 629-638). Adult BALB/C mice from Harlan were used in the assay. On day 1, animals were lightly anesthetized with isoflurane and the hairs between the shoulder were carefully removed before oxazolone (4%, 150 μL, 4:1 acetone: olive oil formulation) or vehicle solution was slowly applied for skin sensitization. Seven days after skin sensitization, the mice were fasted overnight, anesthetized with isoflurane inhalation, and a 1 mL syringe equipped with a 3.5-F catheter, filled with oxazolone solution, was inserted carefully about 4 cm into the colon of the mouse. Following insertion, 50 μL of the oxazolone solution (1%, 1:1 ethanol:water formulation) was injected very slowly (over 30 sec using an injection pump) into the colon. The catheter was removed and the mice were held vertically (head down) for 2 min to ensure that the entire oxazolone solution remained inside the colon. Drug treatment (PO, BID or TID) or vehicle was initiated a day prior to the oxazolone intrarectal (IR) challenge. Two-day post oxazolone intrarectal challenge, the Disease Activity Index (DAI) was assessed by treatment-blinded experimenters for each mouse according to the criteria score: stool consistency score (0, normal; 2, loose; 4, diarrhea), gross bleeding score (0, absence; 2, blood tinged; 4, presence), and weight loss score (0, none; 1, 1%-5%; 2, 5%-10%; 3, 10%-20%; 4, more than 20%); DAI=average of (stool consistency score+gross bleeding score+weight loss score).
Selected compounds of the invention were tested in the assay. Efficacy in the model is evidenced by a decrease in DAI score as compared with the score from vehicle treated animals.

Data set [7] concerns IL-13 induced STAT6 phosphorylation in HT-29 human colorectal adenocarcinoma cells. As to the kind of experiment: Cellular JAK potency assay: inhibition of IL-13 induced STAT6 phosphorylation. The format is cell-based. Particulars: Homo sapiens; IL-13 induced STAT6 phosphorylation, HT-29 cells; read-out: HT-29 (pIC50) (converted).
Data set [8] can be described thus: Dynamic moisture sorption assessment. Format: physicochemical. Particulars: for weight gain: humidity range of 5% to 90% relative humidity, 25° C. Here is the method:
Dynamic moisture sorption (DMS) measurement was performed using a VTI atmospheric microbalance, SGA-100 system (VTI Corp., Hialeah, Fla. 33016). A weighed sample was used and the humidity was lowest possible value (close to 0% RH) at the start of the analysis. The DMS analysis consisted of an initial drying step (0% RH) for 120 minutes, followed by two cycles of sorption and desorption with a scan rate of 5% RH/step over the humidity range of 5% RH to 90% RH. The DMS run was performed isothermally at 25° C.

Data set [9] has as its system mouse splenic NK, B and T cells. Particulars: in vivo, po. Here is the method:
Depletion of mouse splenic cells is an experimental model of immunosuppression (Kudlacz et al., Am. J. of Transplantation, 2004, 4, 51-57). The compound of Example 2 was assessed in the mouse splenic cell model following the same treatment paradigm as that used in the oxazolone-induced colitis model (Assay 8).
The compound (1, 10 and 100 mg/kg, BID) and tofacitinib (30 and 60 mg/kg, BID) as a positive control were dosed orally for three days to naïve mice. Spleens were harvested 1 h post last dose and crushed immediately for cell subtype staining. Prior to fixation, fluorophore-labelled antibodies for CD19 (FITC; B cells), CD3e (PE; pan T cells) and DX5 (APC; NK cells) were incubated with splenocyte samples from each animal to allow for simultaneous, multiple subtype % analysis on the flow cytometer. The number of total spleen cells for each animal was measured by Scepter™ 2.0 Handheld Automated Cell Counter.
The absolute number of lymphocyte subtype population (e.g., splenic B, T and NK cells) was calculated from the percentage of each subtype times total spleen cells for each animal. A one way ANOVA, with Dunnett's post hoc test, was used to compare the splenic lymphocytes number of the vehicle and test compound groups. The a level was set at p<0.05. Data were presented as the mean±SEM for each group.

Where [10] appears, read: read-out: JAK 3 (pKi) (converted).

Chain of JAK1 (P23458 whole entry): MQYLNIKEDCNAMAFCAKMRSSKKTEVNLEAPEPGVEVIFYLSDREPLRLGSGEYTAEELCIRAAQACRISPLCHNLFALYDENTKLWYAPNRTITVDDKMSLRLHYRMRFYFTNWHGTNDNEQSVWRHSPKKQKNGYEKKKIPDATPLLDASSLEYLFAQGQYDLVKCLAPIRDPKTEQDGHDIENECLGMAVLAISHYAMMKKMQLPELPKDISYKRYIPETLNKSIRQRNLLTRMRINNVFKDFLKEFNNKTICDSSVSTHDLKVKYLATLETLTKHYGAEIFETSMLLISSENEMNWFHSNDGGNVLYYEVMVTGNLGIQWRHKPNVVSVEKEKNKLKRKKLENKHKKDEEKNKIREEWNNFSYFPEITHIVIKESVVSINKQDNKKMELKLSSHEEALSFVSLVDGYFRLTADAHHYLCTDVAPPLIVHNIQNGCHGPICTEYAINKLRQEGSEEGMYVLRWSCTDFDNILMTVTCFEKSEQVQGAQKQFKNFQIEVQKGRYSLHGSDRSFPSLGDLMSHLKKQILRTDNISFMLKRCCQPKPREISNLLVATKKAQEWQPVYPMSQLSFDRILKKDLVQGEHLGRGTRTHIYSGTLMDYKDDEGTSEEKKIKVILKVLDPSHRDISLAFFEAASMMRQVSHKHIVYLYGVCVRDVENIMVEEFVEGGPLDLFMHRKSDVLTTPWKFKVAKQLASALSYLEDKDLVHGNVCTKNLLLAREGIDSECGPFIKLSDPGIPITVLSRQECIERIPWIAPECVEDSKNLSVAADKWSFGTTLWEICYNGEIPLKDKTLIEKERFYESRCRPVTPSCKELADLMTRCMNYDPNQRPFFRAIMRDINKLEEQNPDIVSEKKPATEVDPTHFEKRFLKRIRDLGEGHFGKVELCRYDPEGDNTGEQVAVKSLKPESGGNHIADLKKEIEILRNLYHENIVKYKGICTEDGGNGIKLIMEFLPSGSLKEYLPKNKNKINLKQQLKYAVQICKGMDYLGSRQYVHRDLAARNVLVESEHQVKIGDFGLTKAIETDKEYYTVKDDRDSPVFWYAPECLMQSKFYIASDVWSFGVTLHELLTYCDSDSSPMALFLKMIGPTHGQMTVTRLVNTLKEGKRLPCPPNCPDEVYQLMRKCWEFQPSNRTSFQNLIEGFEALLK
Chain of JAK3 (P52333 whole entry): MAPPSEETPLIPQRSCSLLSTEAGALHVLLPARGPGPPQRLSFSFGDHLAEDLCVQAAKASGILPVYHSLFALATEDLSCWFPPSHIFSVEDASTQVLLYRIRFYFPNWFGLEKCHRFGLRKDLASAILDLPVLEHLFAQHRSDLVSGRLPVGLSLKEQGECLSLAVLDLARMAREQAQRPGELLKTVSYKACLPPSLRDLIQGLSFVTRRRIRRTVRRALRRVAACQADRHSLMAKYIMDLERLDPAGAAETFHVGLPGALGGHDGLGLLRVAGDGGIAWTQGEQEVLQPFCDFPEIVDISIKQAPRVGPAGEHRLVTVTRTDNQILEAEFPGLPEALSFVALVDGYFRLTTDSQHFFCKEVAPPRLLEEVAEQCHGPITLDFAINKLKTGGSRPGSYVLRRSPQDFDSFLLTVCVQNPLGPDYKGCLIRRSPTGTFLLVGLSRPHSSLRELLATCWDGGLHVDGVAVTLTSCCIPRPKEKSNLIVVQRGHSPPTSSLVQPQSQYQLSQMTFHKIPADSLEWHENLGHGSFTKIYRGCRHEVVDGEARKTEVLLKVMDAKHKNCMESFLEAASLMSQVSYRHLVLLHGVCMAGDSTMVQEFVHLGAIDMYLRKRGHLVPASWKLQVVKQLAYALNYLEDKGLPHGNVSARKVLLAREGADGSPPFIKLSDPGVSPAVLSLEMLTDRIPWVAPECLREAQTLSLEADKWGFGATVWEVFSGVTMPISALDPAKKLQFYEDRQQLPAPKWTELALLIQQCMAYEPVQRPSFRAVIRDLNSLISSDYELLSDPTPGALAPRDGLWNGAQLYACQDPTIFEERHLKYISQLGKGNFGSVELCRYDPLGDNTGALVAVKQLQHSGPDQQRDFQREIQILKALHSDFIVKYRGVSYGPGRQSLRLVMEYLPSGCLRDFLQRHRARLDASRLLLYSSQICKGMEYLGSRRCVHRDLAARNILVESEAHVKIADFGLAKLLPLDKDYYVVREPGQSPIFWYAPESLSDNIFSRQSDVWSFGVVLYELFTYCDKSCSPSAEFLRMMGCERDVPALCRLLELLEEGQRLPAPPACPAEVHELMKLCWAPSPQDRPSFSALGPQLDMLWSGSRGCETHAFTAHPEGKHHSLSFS

In the case of `COc1cc(Nc2cc(CO)[nH]n2)nc(N(C)[C@@H]2C[C@H]3CC[C@@H](C2)N3S(=O)(=O)N2CC(C#N)C2)n1` [Example 1, 1-(((1R,3s,5S)-3-((4-((5-(Hydroxymethyl)-1H-pyrazol-3-yl)amino)-6-methoxypyrimidin-2-yl)(methyl)amino)-8-azabicyclo[3.2.1]octan-8-yl)sulfonyl)azetidine-3-carbonitrile], the “JAK 1 (pKi)” value in [1] is “A (A represents a pKi value≥10 (Ki≤0.1 nM))”. In addition, the Ki in data set [2] is 1 to 10 nM. In addition, the Ki in data set [3] was 0.1 to 1 nM. In [4], the “JAK 2 (pKi)” value is on record as “A (A represents a pKi value≥10 (Ki≤0.1 nM))”. Moreover, in data set [5], the bioavailability was < 5% and the “absorption at the portal vein (Fa %)” value is on record as “less than 25%”. Further, in [6], the “decrease in DAI score as compared with vehicle treated animals” value is “did not exhibit a statistically significant decrease”. Also, the IC50 in data set [7] was 31.6 to 200 nM.
Take `COc1cc(Nc2cc(CO)[nH]n2)nc(N(C)[C@@H]2C[C@H]3CCC[C@@H](C2)N3S(C)(=O)=O)n1` [Example 3, (3-((6-methoxy-2-(methyl((1R,3s,5S)-9-(methylsulfonyl)-9-azabicyclo[3.3.1]nonan-3-yl)amino)pyrimidin-4-yl)amino)-1H-pyrazol-5-yl)methanol]: the Ki is 0.1 to 1 nM in data set [1], 1 to 10 nM in [2] (setting [10]) and 0.1 to 1 nM in data set [3]. Also, the “JAK 2 (pKi)” value in data set [4] is listed as “A (A represents a pKi value≥10 (Ki≤0.1 nM))”. For the same molecule, in data set [5], the “absorption at the portal vein (Fa %)” value was “greater than 40%”. Further, the IC50 in data set [7] was 31.6 to 200 nM.
For the molecule `COCCS(=O)(=O)N1[C@@H]2CCC[C@H]1C[C@H](N(C)c1nc(Nc3cc(CO)[nH]n3)cc(OC)n1)C2` [Example 4, (3-((6-methoxy-2-(((1R,3s,5S)-9-((2-methoxyethyl)sulfonyl)-9-azabicyclo[3.3.1]nonan-3-yl)(methyl)amino)pyrimidin-4-yl)amino)-1H-pyrazol-5-yl)methanol], the Ki in [1] was 0.1 to 1 nM; in data set [2] (setting [10]), 1 to 10 nM; in data set [3], 0.1 to 1 nM. The “JAK 2 (pKi)” value in data set [4] is listed as “A (A represents a pKi value≥10 (Ki≤0.1 nM))”. Also, in data set [5], the bioavailability is < 5%. The “absorption at the portal vein (Fa %)” value in [5] is “greater than 40%”. The “decrease in DAI score as compared with vehicle treated animals” value in data set [6] is reported as “statistically significant decrease”. Moreover, the IC50 in data set [7] is 31.6 to 200 nM.
As to `COc1cc(Nc2cc(CO)[nH]n2)nc(N(C)[C@@H]2C[C@H]3CCC[C@@H](C2)N3S(=O)(=O)N2CC(C#N)C2)n1` [Form I, 1-(((1R,3s,5S)-3-((4-((5-(hydroxymethyl)-1H-pyrazol-3-yl)amino)-6-methoxypyrimidin-2-yl)(methyl)amino)-9-azabicyclo[3.3.1]nonan-9-yl)sulfonyl)azetidine-3-carbonitrile], in data set [8], the weight gain result is given as “less than 0.4%”.
As to `COc1cc(Nc2cc(CO)[nH]n2)nc(N(C)[C@@H]2C[C@H]3CCC[C@@H](C2)N3S(=O)(=O)N2CC(C#N)C2)n1` [Form II, 1-(((1R,3s,5S)-3-((4-((5-(hydroxymethyl)-1H-pyrazol-3-yl)amino)-6-methoxypyrimidin-2-yl)(methyl)amino)-9-azabicyclo[3.3.1]nonan-9-yl)sulfonyl)azetidine-3-carbonitrile], the hygroscopicity entry in data set [8] (5% to 90% relative humidity) is listed as “slightly hygroscopic”. Further, in [8], the weight gain result is “about 1.2%”.
Turning to `C[C@@H]1CCN(C(=O)CC#N)C[C@@H]1N(C)c1ncnc2[nH]ccc12` [tofacitinib, reference compound], the “treatment effect on B and T cell populations” value in [9] is recorded as “No treatment effect”.
